According to ChEMBL document CHEMBL5357031, “Design and Synthesis of Cytotoxic Water-Soluble Rocaglaol Derivatives against HEL Cells by Inhibiting Fli-1” (J Nat Prod, 2024):
Activity calls are given as the source filed them.

Columns and labels:
HEL [1] = test: Induction of apoptosis in HEL cells assessed as downregulation of caspase-3 expression at 0.1 to 0.4 uM incubated for 48 hrs by Western blot analysis; format: functional, cell-based; details: Homo sapiens, dose 0.1-0.4 µM
HEL [2] = test: Induction of apoptosis in HEL cells assessed as upregulation of cleaved caspase-3 expression at 0.1 to 0.4 uM incubated for 48 hrs by Western blot analysis; format: functional, cell-based; details: Homo sapiens, dose 0.1-0.4 µM
[3] = target: T1, Friend leukemia integration 1 transcription factor (Homo sapiens) (UniProt Q01543); test: Inhibition of Fli-1 in HEL cells by Western blot analysis; format: cell-based; details: dose 0.1-0.4 µM
T1 sequence (whole entry): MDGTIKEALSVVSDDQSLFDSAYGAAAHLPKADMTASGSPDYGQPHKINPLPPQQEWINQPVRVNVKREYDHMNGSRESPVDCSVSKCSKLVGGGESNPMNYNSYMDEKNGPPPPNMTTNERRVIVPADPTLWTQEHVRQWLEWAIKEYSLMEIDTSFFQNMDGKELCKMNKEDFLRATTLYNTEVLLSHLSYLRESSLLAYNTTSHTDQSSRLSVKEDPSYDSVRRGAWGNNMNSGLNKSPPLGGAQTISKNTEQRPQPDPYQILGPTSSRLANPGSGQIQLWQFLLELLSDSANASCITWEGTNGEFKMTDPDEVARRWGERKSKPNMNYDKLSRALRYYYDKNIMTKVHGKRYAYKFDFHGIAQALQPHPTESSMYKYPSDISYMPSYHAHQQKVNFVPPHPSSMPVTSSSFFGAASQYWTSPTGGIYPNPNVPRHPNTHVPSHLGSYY

HEL [4] = test: Induction of apoptosis in HEL cells assessed as downregulation of caspase-9 expression at 0.1 to 0.4 uM incubated for 48 hrs by Western blot analysis; format: functional, cell-based; details: Homo sapiens, dose 0.1-0.4 µM
HEL [5] = test: Induction of apoptosis in HEL cells assessed as downregulation of PARP expression at 0.1 to 0.4 uM incubated for 48 hrs by Western blot analysis; format: functional, cell-based; details: Homo sapiens, dose 0.1-0.4 µM
[6] = target: T1, Friend leukemia integration 1 transcription factor (Homo sapiens); test: Binding affinity to Fli-1 in HEL cells assessed as increase in thermal stability at 0.4 uM preincubated for 1 hr followed by heating at 40 to 60 degreeC by CETSA assay; format: cell-based
HEL [7] = test: Induction of apoptosis in HEL cells assessed as upregulation of cleaved caspase-9 expression at 0.1 to 0.4 uM incubated for 48 hrs by Western blot analysis; format: functional, cell-based; details: Homo sapiens, dose 0.1-0.4 µM
HEL [8] = test: Induction of apoptosis in HEL cells assessed as upregulation of cleaved PARP expression at 0.1 to 0.4 uM incubated for 48 hrs by Western blot analysis; format: functional, cell-based; details: Homo sapiens, dose 0.1-0.4 µM

COc1cc(OC)c2c(c1)O[C@@]1(c3ccc(OCCCCCN4CCN(C)CC4)cc3)[C@H](c3ccccc3)C[C@@H](O)[C@@]21O (racemic; form 2)
active: Activity (HEL [1]) | Activity (HEL [2]) | inhibition [3] Dose-Dependent Effect | Activity (HEL [4]) | Activity (HEL [5]) | Activity [6] | Activity (HEL [7]) | Activity (HEL [8])
